Reference: paper PMC7827417, “Steroid Glycosides Hyrcanoside and Deglucohyrcanoside: On Isolation, Structural Identification, and Anticancer Activity” (Foods, 2021)
Like-named read-outs stand apart in the source and are kept apart here.

Tests used:
CCRF-CEM = assay: MTS cytotoxic assay, CCRF-CEM; format: cell-based; details: Homo sapiens, 72 h
Excerpt: (§1) If not indicated otherwise, the cell lines were purchased from the American Type Culture Collection (ATCC). […] K562 is the erythroid-myeloid precursor cell line derived from chronic myeloid leukemia carrying the BCR-ABL hybrid gene. A549, MCF-7, PC-3, 5637, U-2 OS, and MiaPaCa-2 are cells derived from lung, breast, prostate, bladder carcinoma, osteosarcoma, and pancreatic adenocarcinoma, respectively. HEK 293T are transformed human embryonic kidney cells, and L929 (Sigma, St. Louis, MS, USA) are transformed mouse fibroblasts. HCT116, cells from colorectal carcinoma, and their p53 gene knock-out variant (HCT116p53-/-) were purchased from Horizon Discovery. This cell line is a model of human tumors bearing p53 loss-of-function mutations or biallelic deletion of the p53 gene, frequently associated with poor prognosis. The MRC-5 and BJ cells were used as noncancerous cells; more specifically, they are human fibroblasts from the lungs and foreskin, respectively. According to the supplier’s recommendations, all cells were cultured at 37 °C in a 5% CO2 atmosphere and 100% humidity. The culture media used were: DMEM, RPMI 1640, and MEM (according to a cell line); all were supplemented with 5 g L^−1 glucose, 10% fetal calf serum, 2 mM glutamine, 100 U mL^−1 penicillin, 100 µg mL^−1 streptomycin, and NaHCO3. Cells were passaged every two or three days using 0.25% trypsin plus 0.01% EDTA (ethylenediamine tetraacetic acid) in phosphate-buffered saline.
(§2) To evaluate compound cytotoxicity, cells were seeded in 384-well microtiter plates in a volume of […]. The next day, aliquots of the tested derivatives were transferred with Echo550 acoustic liquid handler (Labcyte) to obtain dose response curves with dilution factor 4. The experiments were performed in technical duplicates and three or more biological replicates. After 72 h of incubation in a humidified incubator, […] of the MTS/PMS stock solution were pipetted into each well. After another 1–4 h of incubation, the absorbance at 490 nm was measured using an EnVision Multilabel Plate Reader (PerkinElmer).

A549 = assay: MTS cytotoxic assay, A549; format: cell-based; details: Homo sapiens
Excerpt: as §1, §2

U-2 OS = assay: MTS cytotoxic assay, U-2 OS; format: cell-based; details: Homo sapiens, U2OS, 72 h
Excerpt: as §1, §2

PC-3 = assay: MTS cytotoxic assay, PC-3; format: cell-based; details: Homo sapiens
Excerpt: as §1, §2

BJ = assay: MTS cytotoxic assay, BJ; format: cell-based; details: Homo sapiens, 72 h
Excerpt: as §1, §2

L929 = assay: MTS cytotoxic assay, L929; format: cell-based, mouse
Excerpt: as §1, §2

CCRF-CEM cells [1] = assay: Cell cycle arrest and cell death analysis by flow cytometry (propidium iodide, pH3Ser10); format: cell-based, human; details: % of positive cells
Method: Together with the CG-treated cells, a vehicle-treated sample was harvested at the same time point. After 24 h, the cells were washed with cold phosphate-buffered saline, fixed dropwise in 70% ethanol, and stored overnight at −20 °C. The cells were then washed with hypotonic citrate buffer, treated with RNAse (50 µg mL^−1), and stained with propidium iodide. Flow cytometry using a 488 nm laser (FACS-Calibur, Becton Dickinson, NJ, USA) was used for measurement. The cell cycle was analyzed by the ModFitLT program (Verity), and apoptosis was measured in a logarithmic model expressing the percentage of particles with a lower propidium content than cells in the G0/G1 phase (<G1) of the cell cycle in the CellQuest program (Becton Dickinson). Half of the sample was used to label cells with pH3^Ser10-FITC antibody (Exbio) for subsequent flow cytometry analysis of mitotic cells.

CCRF-CEM cells [2] = assay: BrDU incorporation analysis (DNA synthesis); format: cell-based, human; details: % of positive cells
Method: The cells were cultured in the same way as the cell cycle analysis method. Just before harvesting, 5-bromo-2′-deoxyuridine (BrDU) of 10 µM concentration was added to the cells for pulse-labeling for 30 min. Then, the cells were fixed with −20 °C cold 70% ethanol and stored in a freezer for 16 h. Before antibody staining, the samples were incubated on ice for 30 min, washed once with phosphate-buffered saline (PBS), and re-suspended in 2 M of HCl for 30 min at room temperature to hydrolyze their DNA. After neutralization with 0.1 M of Na2B4O7 (borax) solution, the cells were washed with PBS containing 0.5% Tween-20 and 1% BSA. This was followed by staining with the primary anti-BrDU antibody (Exbio) for 30 min at room temperature. Then, the cells were washed with PBS and stained with a secondary anti-mouse antibody conjugated to fluorescein isothiocyanate (Merck-Sigma, St. Louis, MS, USA) at room temperature in the dark. After another washing with PBS and incubation with propidium iodide (0.1 mg·mL^−1) and RNAse A (0.5 mg·mL^−1) for 1 h at room temperature in the dark, the cells were analyzed by flow cytometry using a 488 nm laser (FACSCalibur, Becton Dickinson, Franklin Lakes, NJ, USA).

SH-SY5Y cells = system: SH-SY5Y cells; parameters: method as in PMID 25838173; details: cited from earlier work
[3] = system: rat vascular smooth muscle cells, endothelial cells, and astrocytes; parameters: method as in PMID 26067145; details: high concentrations of Ob (3–3000 μM) ref 54; cited from earlier work

## C[C@]12CC[C@H]3[C@@H](CCC4=C[C@@H](O[C@@H]5OC[C@@H](O[C@@H]6O[C@H](CO)[C@@H](O)[C@H](O)[C@H]6O)[C@H](O)[C@H]5O)CC[C@@]43C=O)[C@@]1(O)CC[C@@H]2C1=CC(=O)OC1 [Hyr, (3β)-3-[(4-O-β-D-glucopyranosyl-β-D-xylopyranosyl)oxy]-14-hydroxy-19-oxocarda-4,20(22)-dienolide]
CCRF-CEM
  IC50: 660 ± 38 nM
A549; A549, 72 h
  IC50: 550 ± 38 nM
U-2 OS
  IC50: 1100 ± 59 nM
PC-3; PC-3, 72 h
  IC50: 756 ± 29 nM
BJ; BJ
  IC50: 1450 ± 250 nM
L929; Mus musculus, L929, 72 h
  IC50: > 10000 nM
CCRF-CEM cells [1]; 1 × IC50, 24 h
  < G1 (apoptotic cells): 2.82%
  G0/G1: 38.48%
  G2/M: 26.30%
  M (Phospho-Histone3 (Ser10)): 1.41%
  S: 35.22%
CCRF-CEM cells [1]; 5 × IC50, 24 h
  < G1 (apoptotic cells): 5.82%
  G0/G1: 42.13%
  G2/M: 34.86%
  M (Phospho-Histone3 (Ser10)): 0.95%
  S: 23.01%
CCRF-CEM cells [2]; 1 × IC50, 24 h
  BrDU: 30.58%
CCRF-CEM cells [2]; 5 × IC50, 24 h
  BrDU: 23.58%

## CO[C@H]1C[C@H](O[C@H]2CC[C@]3(C=O)[C@H]4CC[C@]5(C)[C@@H](C6=CC(=O)OC6)CC[C@]5(O)[C@@H]4CC[C@]3(O)C2)O[C@H](C)[C@H]1O [Cy, cymarin]
CCRF-CEM
  IC50: 14 ± 2.1 nM
A549; A549, 72 h
  IC50: 15 ± 1.8 nM
U-2 OS
  IC50: 43 ± 1.8 nM
PC-3; PC-3, 72 h
  IC50: 26 ± 2.9 nM
BJ; BJ
  IC50: 54 ± 10 nM
L929; Mus musculus, L929, 72 h
  IC50: > 10000 nM
CCRF-CEM cells [1]; 1 × IC50, 24 h
  < G1 (apoptotic cells): 2.89%
  G0/G1: 35.78%
  G2/M: 24.35%
  M (Phospho-Histone3 (Ser10)): 1.43%
  S: 39.87%
CCRF-CEM cells [1]; 5 × IC50, 24 h
  < G1 (apoptotic cells): 7.01%
  G0/G1: 40.34%
  G2/M: 28.49%
  M (Phospho-Histone3 (Ser10)): 1.08%
  S: 31.17%
CCRF-CEM cells [2]; 1 × IC50, 24 h
  BrDU: 32.34%
CCRF-CEM cells [2]; 5 × IC50, 24 h
  BrDU: 21.37%

## C[C@@H]1O[C@@H](O[C@H]2C[C@@H](O)[C@]3(CO)[C@H]4[C@H](O)C[C@]5(C)[C@@H](C6=CC(=O)OC6)CC[C@]5(O)[C@@H]4CC[C@]3(O)C2)[C@H](O)[C@H](O)[C@H]1O [Ob, ouabain]
CCRF-CEM; MTS, read-out: IC50
  IC50: 32 ± 5.8 nM
A549; A549, MTS, 72 h, read-out: IC50
  IC50: 22 ± 0.94 nM
U-2 OS; U-2 OS, MTS, read-out: IC50
  IC50: 59 ± 1.1 nM
PC-3; PC-3, MTS, 72 h, read-out: IC50
  IC50: 49 ± 1.4 nM
BJ; BJ noncancerous foreskin fibroblasts, MTS, read-out: IC50
  IC50: 54 ± 9.9 nM
L929; L929 mouse transformed fibroblasts, MTS, 72 h, read-out: IC50
  IC50: > 10000 nM
CCRF-CEM cells [1]; 1 × IC50, 24 h
  < G1 (apoptotic cells): 20.68%
  G0/G1: 40.42%
  G2/M: 33.80%
  M (Phospho-Histone3 (Ser10)): 1.73%
  S: 25.78%
CCRF-CEM cells [1]; 5 × IC50, 24 h
  < G1 (apoptotic cells): 33.31%
  G0/G1: 33.94%
  G2/M: 25.27%
  M (Phospho-Histone3 (Ser10)): 0.63%
  S: 40.80%
CCRF-CEM cells [2]; 1 × IC50, 24 h
  BrDU: 40.53%
CCRF-CEM cells [2]; 5 × IC50, 24 h
  BrDU: 19.29%
SH-SY5Y cells; 24 h ref 53
  reduction of viability: 40%
SH-SY5Y cells; 48 h ref 53
  reduction of viability: 10%
[3]
  survival of rodent cells (in words): perfectly survived

## C[C@]12CC[C@H]3[C@@H](CCC4=C[C@@H](O[C@@H]5OC[C@@H](O)[C@H](O)[C@H]5O)CC[C@@]43C=O)[C@@]1(O)CC[C@@H]2C1=CC(=O)OC1 [deHyr, deglucohyrcanoside]
CCRF-CEM
  IC50: 110 ± 21 nM
A549; A549, 72 h
  IC50: 90 ± 14 nM
U-2 OS
  IC50: 165 ± 11 nM
PC-3; PC-3, 72 h
  IC50: 122 ± 4.7 nM
BJ; BJ
  IC50: 230 ± 35 nM
L929; Mus musculus, L929, 72 h
  IC50: > 10000 nM
CCRF-CEM cells [1]; 1 × IC50, 24 h
  < G1 (apoptotic cells): 22.02%
  G0/G1: 44.90%
  G2/M: 37.50%
  M (Phospho-Histone3 (Ser10)): 1.44%
  S: 17.60%
CCRF-CEM cells [1]; 5 × IC50, 24 h
  < G1 (apoptotic cells): 27.43%
  G0/G1: 39.12%
  G2/M: 26.34%
  M (Phospho-Histone3 (Ser10)): 1.56%
  S: 34.53%
CCRF-CEM cells [2]; 1 × IC50, 24 h
  BrDU: 37.40%
CCRF-CEM cells [2]; 5 × IC50, 24 h
  BrDU: 6.08%
